Results reported in publication PMC8468607 (International Journal of Molecular Sciences, 2021).

How the values were obtained:
[1] = system: A549 cells; test: Proliferation assay (MTT), A549; type: cell-based; conditions: Homo sapiens, NSCLC cell line, 48 h, mean ± S.E.M., read-out: IC50 against cell proliferation, A549
Description: (§1) Human cancer cell lines derived from the liver (Hep3B, Huh7) and the lung (A549, H1299) were obtained from American Type Culture Collection (ATCC, Manassas, VA, USA). An H6c7 human normal pancreatic duct epithelial cell line was purchased from Kerafast (Boston, MA, USA). […] The media were supplemented with 10% fetal bovine serum (FBS) (Gibco/ThermoFisher Scientific) and 1% penicillin/streptomycin (Gibco/ThermoFisher Scientific). In the case of H6c7, the cells were maintained in a keratinocyte serum-free medium supplemented with a recombinant […] (rEGF) and bovine pituitary extract (Gibco/ThermoFisher Scientific).
(§2) HCC (Hep3B, Huh7) and NSCLC (A549, H1299) cell lines were seeded in a 96-well plate at a density of 2.5 × 10^4 cells/mL in complete media and allowed to adhere for 24 h. […] Then, the media were removed, and 200 µL of dimethyl sulfoxide (DMSO) (Duksan, Ansan, South Korea) was added to solubilize the formazan crystal. After a 30 min incubation, the absorbance was measured at 540 nm using a microplate reader (BMG LABTECH, Ortenberg, Germany).

[2] = system: H1299 cells; test: Proliferation assay (MTT), H1299; type: cell-based; conditions: Homo sapiens, NCI-H1299, NSCLC cell line, 48 h, mean ± S.E.M., read-out: IC50 against cell proliferation, H1299
Description: as §1, §2

[3] = target: T1, human c-Met kinase (Homo sapiens, UniProt P08581); test: c-Met kinase assay (Kinase HotSpot, Reaction Biology); type: biochemical; conditions: for c-Met inhibition at fixed concentration / inhibition at 1 µM: 1 μM compound; for c-Met inhibition at fixed concentration: 1 µM; for inhibition at 1 µM: read-out: c-Met inhibition at fixed concentration; for IC50: three independent experiments, ATP 10 μM, read-out: IC50 against c-Met kinase
T1 construct: purchased Reaction Biology Corporation (Malvern, PA, USA), contract assay service
Experimental: Briefly, human c-Met kinase (5–10 mU) and peptide substrate ([…], 20 µM) were prepared in a reaction buffer with a final volume of 25 μL. The compounds were delivered into the reaction, followed ~20 min. later by the addition of a mixture of ATP and [γ-33P-ATP] (specific activity approx. 500 cpm/pmol, concentration as required) to a final concentration of 10 μM. […] Then, the reaction was spotted onto a P30 filtermat, and unbound phosphate was removed by washing 3 times for 5 min in 75 mM phosphoric acid and once in methanol prior to drying and scintillation counting. […] IC50 values and curve fits were obtained using GraphPad Prism 5 software.

[4] = system: Huh7 cells; test: Proliferation assay (MTT), Huh7; type: cell-based; conditions: Homo sapiens, Huh-7, HCC cell line, 48 h, mean ± S.E.M., read-out: IC50 against cell proliferation, Huh7
Description: as §1, §2

[5] = system: Hep3B cells; test: Proliferation assay (MTT), Hep3B; type: cell-based; conditions: Homo sapiens, HCC cell line, 48 h, mean ± S.E.M., read-out: IC50 against cell proliferation, Hep3B
Description: as §1, §2

[6] = Cytotoxicity assay (MTT), H6c7 normal pancreatic duct epithelial cells; type: cell-based; conditions: normal human pancreatic duct epithelial cells, mean ± S.E.M., read-out: IC50 against cell viability (cytotoxicity), H6c7
Experimental: Human cancer cell lines derived from the liver (Hep3B, Huh7) and the lung (A549, H1299) were obtained from American Type Culture Collection (ATCC, Manassas, VA, USA). An H6c7 human normal pancreatic duct epithelial cell line was purchased from Kerafast (Boston, MA, USA). Hep3B, Huh7, and A549 cells were cultured in Dulbecco′s Modified Eagle′s Medium (DMEM) (Hyclone, Logan, UT, USA), and H1299 cells were cultured in an RPMI-1640 medium (Hyclone). The media were supplemented with 10% fetal bovine serum (FBS) (Gibco/ThermoFisher Scientific) and 1% penicillin/streptomycin (Gibco/ThermoFisher Scientific). In the case of H6c7, the cells were maintained in a keratinocyte serum-free medium supplemented with a recombinant […] (rEGF) and bovine pituitary extract (Gibco/ThermoFisher Scientific). All the cells were incubated at 37 °C under a 5% CO2 atmosphere.
The H6c7 cell line was seeded in a 96-well plate in a complete medium. After 24 h, the culture medium was changed into a keratinocyte serum-free medium. […] The optical density was measured at 540 nm using a Spectrostar Nano microplate reader (BMG LABTECH).

[7] = system: Hep3B cells xenografted onto CAM; test: Hep3B xenografted CAM tumor model; type: in vivo, chick; conditions: 30 and 150 pmol/CAM, 4 days of incubation
Experimental: Fertilized chicken eggs were purchased from Byeolbichon Farm (Gyeongbuk, South Korea) and incubated at 37 °C with 55% relative humidity. On day 9 of egg incubation, a small hole was made in the shell over the air sac after the selection of bifurcated vessels. Another hole was made on the broadside using a needle by applying negative pressure to the wider part, creating false air sac. Using a grinding wheel (Dremel, Racine, WI, USA), a small window (1 cm^2) was created in the eggshell above the false air sac. […] The mixture was inoculated on the CAM (final drug doses = 30 and 150 pmol/CAM), and the anti-tumor activity of the drugs was compared at the same concentrations. After sealing the window in the eggshell, the eggs were then returned to the incubator. After 4 days of incubation, tumor tissues attached to CAM were resected from the embryo and harvested. The number of vessel branch points within the tumor region was counted and analyzed using ImageJ software. Chick embryo experiments were performed in accordance with the institutional guidelines of the Institute of Laboratory Animal Resources (1996) and Yeungnam University for the care and use of laboratory animals (2009). The experiment protocol was reviewed and approved by the Institutional Animal Care and Use Committee at the Yeungnam University.

[8] = system: Hep3B cells; test: Apoptosis by annexin V-FITC/PI FACS, Hep3B; type: cell-based; conditions: Homo sapiens, 48 h, Q4 lower left, annexin V-FITC and PI negative, read-out: FACS quadrant Q4 viable cells, Hep3B
Experimental: (§3) Then, the cells were stained with propidium iodide and Annexin V-FITC using a FITC Annexin V apoptosis detection kit (BD Biosciences, San Jose, CA, USA) as per the manufacturer’s instructions. Briefly, the vehicle- or the drug-treated cells (1 × 10^5) were washed with ice-cold PBS twice and suspended in 1× binding buffer (100 μL). Then, 5 μL of Annexin V-FITC and 5 µL of PI were added, gently vortexed, and incubated for 15 min at 25 °C in the dark. Thereafter, 400 µL of 1× binding buffer was added and analyzed by flow cytometry (FACSVerse Cytometer, BD Biosciences).

[9] = system: A549 cells; test: Apoptosis by annexin V-FITC/PI FACS, A549; type: cell-based; conditions: Homo sapiens, 48 h, Q4 lower left, annexin V-FITC and PI negative, read-out: FACS quadrant Q4 viable cells, A549
Experimental: as §3

[10] = system: c-MET; test: Immunoblotting of c-MET expression and phosphorylation in HCC and NSCLC cell lines; type: cell-based, human; conditions: 10 μM, 24 and 48 h; Hep3B, Huh7, A549, H1299 cells
Experimental: The cells (3.5 × 10^5) were seeded into a 60 mm dish and allowed to attach for 12 h. […] Cell lysates were collected in a radioimmune precipitation assay (RIPA) buffer containing a protease and phosphatase inhibitor cocktail (Thermo Fisher Scientific). Cell extracts were centrifuged at 17,000× g for 15 min, and the protein levels in collected supernatants were measured using a BCA protein assay reagent (Pierce; Rockford, IL, USA). The proteins were separated by SDS-PAGE and transferred at 200 mA to Hybond ECL nitrocellulose membranes (Amersham Life Science, Buckinghamshire, UK) for 1 h. Non-specific binding was blocked using 5% bovine serum albumin (BSA) in Tris-buffered saline (TBS)-Tween 20 (TBS-T) for 1 h. […] The membranes were then washed, incubated with ECL (Pierce, Appleton, WI, USA) detection reagent, and exposed under a luminescent image analyzer, LAS-4000mini. β-Actin was used as the loading control.

[11] = system: normal cell lines; design: method as in PMID 27145715; conditions: cited from earlier work
[12] = system: several cancer cell lines; design: method as in PMID 27145715; conditions: cited from earlier work

T1 sequence (P08581 25-1390): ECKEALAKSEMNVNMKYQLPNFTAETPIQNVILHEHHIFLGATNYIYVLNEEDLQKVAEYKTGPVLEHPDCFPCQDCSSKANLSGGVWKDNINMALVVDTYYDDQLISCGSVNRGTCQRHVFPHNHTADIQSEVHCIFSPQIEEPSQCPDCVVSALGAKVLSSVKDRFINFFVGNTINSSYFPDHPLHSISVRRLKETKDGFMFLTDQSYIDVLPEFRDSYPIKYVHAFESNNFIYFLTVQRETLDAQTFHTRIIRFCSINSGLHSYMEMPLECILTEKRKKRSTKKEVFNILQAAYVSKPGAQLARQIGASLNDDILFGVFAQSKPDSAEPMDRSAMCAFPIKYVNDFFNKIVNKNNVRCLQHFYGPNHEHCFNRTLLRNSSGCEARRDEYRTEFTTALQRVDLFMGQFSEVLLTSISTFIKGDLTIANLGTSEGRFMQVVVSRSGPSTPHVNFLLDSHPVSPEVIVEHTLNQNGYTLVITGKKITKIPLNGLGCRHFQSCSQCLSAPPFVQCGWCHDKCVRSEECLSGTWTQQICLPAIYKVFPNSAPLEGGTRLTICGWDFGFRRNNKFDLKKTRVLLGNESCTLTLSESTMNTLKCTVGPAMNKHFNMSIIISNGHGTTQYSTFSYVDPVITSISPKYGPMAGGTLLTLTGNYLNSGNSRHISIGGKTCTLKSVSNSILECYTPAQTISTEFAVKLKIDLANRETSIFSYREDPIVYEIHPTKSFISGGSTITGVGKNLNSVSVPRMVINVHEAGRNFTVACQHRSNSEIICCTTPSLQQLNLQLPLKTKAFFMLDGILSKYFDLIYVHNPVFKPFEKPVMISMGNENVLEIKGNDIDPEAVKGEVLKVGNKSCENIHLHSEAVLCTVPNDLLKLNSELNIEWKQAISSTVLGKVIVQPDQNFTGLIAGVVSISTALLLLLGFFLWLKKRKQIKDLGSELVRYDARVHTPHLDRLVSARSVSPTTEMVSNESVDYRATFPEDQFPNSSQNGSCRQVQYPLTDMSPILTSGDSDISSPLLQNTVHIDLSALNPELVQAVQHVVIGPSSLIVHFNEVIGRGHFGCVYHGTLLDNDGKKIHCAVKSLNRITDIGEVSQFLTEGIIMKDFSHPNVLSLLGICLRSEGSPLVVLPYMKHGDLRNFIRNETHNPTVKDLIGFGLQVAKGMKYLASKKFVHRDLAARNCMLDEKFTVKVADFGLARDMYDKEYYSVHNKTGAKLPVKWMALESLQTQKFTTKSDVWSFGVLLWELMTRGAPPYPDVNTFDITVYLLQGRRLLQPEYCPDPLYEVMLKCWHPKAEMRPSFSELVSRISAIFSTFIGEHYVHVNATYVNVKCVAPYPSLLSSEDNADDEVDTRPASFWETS

COc1cc2nccc(Oc3c(C)nc(NC(=O)C4(C(=O)Nc5ccc(F)cc5)CC4)c(C)c3C)c2cc1OC [Compound 3]
IC50 [1]: > 100 µM
IC50 [2]: > 100 µM
melting point: 141 °C
c-Met inhibition at fixed concentration [3]: 4%
inhibition at 1 µM [3]: 3.8%
IC50 [3]: > 1000 nM
IC50 [4]: > 100 µM
IC50 [5]: > 100000 nM
IC50 at 48 h [6]: > 100 µM

COc1cc2nccc(Oc3ccc(NC(=O)C4(C(=O)Nc5ccc(F)cc5)CC4)nc3)c2cc1OC [Compound 4]
IC50 [1]: 12.4 ± 6.9 µM
Inhibitory effect on tumor weight [7]: greater than that of cabozantinib
Tumor-induced angiogenesis (number of new vessel branches) [7]: significantly blocked
IC50 [2]: 8.9 ± 1.2 µM
viability at 10 µM [8]: 35.3%
melting point: 119 °C
c-Met inhibition at fixed concentration [3]: 94%
inhibition at 1 µM [3]: 94.3%
IC50 [3]: 4.9 ± 2.3 nM
viability at 10 µM [9]: 61.8%
IC50 [4]: 6.2 ± 1.8 µM
IC50 [5]: 2100 ± 500 nM
IC50 at 48 h [6]: 19.9 ± 1.8 µM
Expression of c-MET and its phosphorylation [10]: significantly reduced

COc1cc2nccc(Oc3ccc(NC(=O)C4(C(=O)Nc5ccc(F)cc5)CC4)cc3)c2cc1OC [Cabozantinib, cabozantinib, reference compound]
Tumor-induced angiogenesis (number of new vessel branches) [7]: significantly blocked
viability at 10 µM [8]: 79.5%
viability at 10 µM [9]: 81.3%
IC50 at 48 h [6]: 39.4 ± 4.3 µM

CCN(CC)CCNC(=O)c1c(C)[nH]c(/C=C2\C(=O)Nc3nc(C)c(O)c(C)c32)c1C [Compound 1]
Toxicity to normal cell lines compared to sunitinib [11]: less toxic to normal cell lines
Anti-cancer activity against several cancer cell lines compared to sunitinib [12]: comparable anti-cancer activity
